# According to patent publication US8063225B2, “Tricyclic compound derivatives useful in the treatment of neoplastic diseases, inflammatory disorders and immunomodulatory disorders” (Chembridge Corporation, priority 2006, dated 2011):
# What was measured:
# Ba/F3 = test: Cell proliferation inhibition, Cell Titer-Glo, Ba/F3; assay type: cell-based; conditions: Mus musculus, BaF3; cell proliferation assay, Ba/F3 cells
# Summary of the method: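 This standard 3-day proliferation assay used Ba/F3 cells plated in 384-well white plates with clear bottoms at 2500-5000 cells per well and treated with compound dilutions. Viable cell number was determined by mixing in Cell Titer-Glo developing reagent according to the manufacturer's protocol and counting luminescence. Percent viability relative to day 0 and untreated wells produced IC50 curves.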
# IGF1 receptor = molecular target: T1, IGF1 receptor (Homo sapiens, UniProt P08069); test: ELISA-based assay of IGF1 receptor autophosphorylation inhibition in cells; assay type: cell-based; conditions: IGF1R phosphorylation inhibition in MCF7 cells
# T1 construct: MCF7 human breast cancer cells expressing IGF1 receptor; endogenous in cells; host or cells: MCF7 human breast cancer cells
# T1 sequence (P08069 741-1367 limits assumed): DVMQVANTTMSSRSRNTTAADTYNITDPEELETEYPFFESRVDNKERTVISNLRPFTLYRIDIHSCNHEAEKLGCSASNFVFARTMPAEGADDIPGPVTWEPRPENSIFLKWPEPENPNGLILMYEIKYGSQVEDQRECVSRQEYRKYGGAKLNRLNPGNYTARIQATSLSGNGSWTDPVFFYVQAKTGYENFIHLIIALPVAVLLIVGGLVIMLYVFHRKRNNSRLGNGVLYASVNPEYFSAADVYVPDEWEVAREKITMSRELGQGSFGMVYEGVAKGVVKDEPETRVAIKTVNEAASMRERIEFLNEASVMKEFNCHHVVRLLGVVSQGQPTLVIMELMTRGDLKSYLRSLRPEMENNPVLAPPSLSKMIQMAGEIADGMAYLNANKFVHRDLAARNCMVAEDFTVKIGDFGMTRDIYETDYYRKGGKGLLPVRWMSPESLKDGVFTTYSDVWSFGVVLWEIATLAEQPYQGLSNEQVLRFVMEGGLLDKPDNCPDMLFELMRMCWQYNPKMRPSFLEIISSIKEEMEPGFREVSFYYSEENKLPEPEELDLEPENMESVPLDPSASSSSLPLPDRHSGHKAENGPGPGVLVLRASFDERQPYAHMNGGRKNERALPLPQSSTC
# T1 sequence (P08069 31-736 partner limits assumed): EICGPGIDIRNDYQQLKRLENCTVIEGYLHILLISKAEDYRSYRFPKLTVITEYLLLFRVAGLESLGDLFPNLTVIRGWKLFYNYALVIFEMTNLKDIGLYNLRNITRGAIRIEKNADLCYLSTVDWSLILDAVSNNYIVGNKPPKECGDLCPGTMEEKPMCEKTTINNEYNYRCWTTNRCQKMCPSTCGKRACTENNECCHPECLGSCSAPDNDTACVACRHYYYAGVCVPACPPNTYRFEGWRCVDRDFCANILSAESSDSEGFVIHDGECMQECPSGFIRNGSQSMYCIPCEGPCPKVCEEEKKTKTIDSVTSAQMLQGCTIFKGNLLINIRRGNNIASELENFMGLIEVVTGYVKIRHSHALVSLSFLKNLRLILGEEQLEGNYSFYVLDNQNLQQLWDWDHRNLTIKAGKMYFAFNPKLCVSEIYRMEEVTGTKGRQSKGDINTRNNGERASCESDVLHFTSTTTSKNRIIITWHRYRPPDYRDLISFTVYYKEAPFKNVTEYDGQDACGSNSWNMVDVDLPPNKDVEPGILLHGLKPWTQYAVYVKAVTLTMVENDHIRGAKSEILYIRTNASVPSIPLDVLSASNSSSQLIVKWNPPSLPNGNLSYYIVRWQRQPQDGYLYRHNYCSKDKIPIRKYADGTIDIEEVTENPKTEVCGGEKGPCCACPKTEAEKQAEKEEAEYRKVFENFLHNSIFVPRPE
# Experimental: In another embodiment, compounds that interact with the IGF1R kinase domain are tested in a cell-based assay system. In accordance with this embodiment, cells expressing a full-length IGF1 receptor or a fragment thereof containing the IGF1R kinase domain, are contacted with a candidate or a control compound and the ability of the compound to block tyrosine kinase activity of IGF1R within a cell is determined. This assay may be used to screen a single compound or a large library of candidate compounds. Typically, the cells or cell lines are of mammalian origin and they can express the IGF1 receptor, or functional IGF1R kinase domain fragment, endogenously or be genetically engineered to express the IGF1R, or functional fragment thereof. The ability of the candidate compound to inhibit IGF1R kinase activity can be determined by methods known to those skilled in the art. For example, the inhibition can be determined by ELISA-type assay or Western blot analysis with cell lysates or immunoprecipitated IGF1R receptor using various anti-IGF1R and anti-phosphotyrosine antibodies.
# In general, cells expressing IGF1R are treated with modulators (i.e., inhibitors or activators) of IGF1R kinase activity and cell lysates are produced from these treated cells. IGF1Rs are isolated from the lysate by immunoprecipitation and analyzed for phosphotyrosine content. Alternatively, or in addition, cellular protein substrates phosphorylated by IGFR may be immunoprecipitated from the lysates and their degree of tyrosine phosphorylation determined.
# MCF7 human breast cancer cells expressing IGF1 receptor or an engineered […] fibroblast cell line NIH 3T3 overexpressing full-length IGF1R are an exemplary cellular models in which to perform such assays. Such cells may be maintained in DMEM medium supplemented with 10% fetal bovine serum (FBS), 4% L-glutamine, 1% antibiotic solution (penicillin-Streptomycin) in a humidified atmosphere of 95% air and 5% CO2 at 37° C. Confluent cells in T175 cell culture flasks are incubated overnight with serum-free DMEM medium. After the serum starvation step, the cells are detached and split into a standard 96-well cell culture plate (one T175 flask per plate, 30 μl of cell suspension per plate well). Tested inhibitors from their 10 mM stock solutions in DMSO are subsequently added at various concentrations in serum-free DMEM medium for 1 hour incubation at 37° C. in CO2-incubator; total DMSO concentration in both treated and control wells is adjusted to 1%. Cells are then stimulated for 10 minutes with 100 nM IGF-1 added in 30 μl DMEM. After treatment, cells are lysed by addition of 30 μl of 4× lysis buffer (phosphate-buffered saline (PBS), 2% Triton-X100, 1 mM phenylmethylsulphonyl fluoride (PMSF) and 8 mM activated orthovanadate), mixing and incubation for 15 minute at room temperature. To prepare assay plates, 96-well ELISA Plates (Pierce Chemical, Reacti-bind plates) were coated by goat-anti-rabbit Fc antiserum by adding 0.25 μg antiserum per well in 0.2M sodium bicarbonate buffer per well and incubating overnight at 4° C. After incubation, the plate is washed three times by PBS with 0.02% Tween-20, supplied with 25 ng/50 μl per well of anti-IGF1R antibody (C-20, Santa Cruz Biotechnology) and incubated for several hours to overnight. Prior to the addition of the prepared cellular lysates, the antibody solution is aspirated, wells washed with PBS and supplied with 25 μl per well of Starting Block buffer (Pierce Chemical).
# To measure tyrosine phosphorylation of the beta-subunits of the IGF1R, 25-50 μl of the lysates are transferred from the stimulation plate to the wells of the prepared assay plate and incubated overnight at 4° C. The wells are washed with PBS with 0.02% Tween-20, incubated with 50 μl of 1:3000 dilution of anti-phosphotyrosine 4G10-HRP antibody conjugate (Upstate Biotechnology) for 2 hours at room temperature and washed again. […]
Structure (SMILES),IC50 (Ba/F3) [µM],IC50 (IGF1 receptor) [µM]
Cc1ccc(OC[C@H](O)CNc2cc[nH]c(=O)c2-c2nc3c(C)c4c(cc3[nH]2)CN(C2CCN(C)CC2)C4=O)c(C)c1 [compound 140],,0.5 to 5
CCc1cc(C)ccc1OC[C@H](O)CNc1cc[nH]c(=O)c1-c1nc2cc3c(cc2[nH]1)CN(C1CCN(C)CC1)C3=O [compound 141],,0.5 to 5
O=C1c2cc3nc(-c4c(NC[C@@H](O)c5cccc(Cl)c5)cc[nH]c4=O)[nH]c3cc2C(=O)N1[C@@H]1CN2CCC1CC2 [compound 33],> 15,> 15
Cc1ccc(OCC(O)CNc2cc[nH]c(=O)c2-c2nc3cc4c(cc3[nH]2)C(=O)N(CC2CCN(CCO)CC2)C4=O)c(C)c1 (stereo not drawn) [compound 37],> 15,5 to 15
C[C@H](O)CN1C(=O)c2cc3nc(-c4c(NC[C@@H](O)c5cccc(Cl)c5)cc[nH]c4=O)[nH]c3cc2C1=O [compound 31],> 15,5 to 15
Cc1ccc(OC[C@@H](O)CNc2cc[nH]c(=O)c2-c2nc3cc4c(cc3[nH]2)C(=O)N(C2CCN(C)CC2)C4=O)c(C)c1 [compound 64],5 to 15,> 15
CN1CCC(N2C(=O)c3cc4nc(-c5c(NC[C@@H](O)c6cccc(Cl)c6)cc[nH]c5=O)[nH]c4cc3C2=O)CC1 [compound 1],,< 0.5
CN1CCC(N2C(=O)c3cc4nc(-c5c(NC[C@@H](O)COc6c(F)ccc(Cl)c6F)cc[nH]c5=O)[nH]c4cc3C2=O)CC1 [compound 95],> 15,5 to 15
Cc1ccc(OC[C@H](O)CNc2cc[nH]c(=O)c2-c2nc3cc4c(cc3[nH]2)CN(C2CCN(C)CC2)C4=O)c(C)c1 [compound 130],,0.5 to 5
Cc1ccc(OC[C@@H](O)CNc2cc[nH]c(=O)c2-c2nc3cc4c(cc3[nH]2)C(=O)N([C@@H]2CCN(C)C2)C4=O)c(C)c1 [compound 107],> 15,5 to 15
Cc1ncsc1CCN1C(=O)c2cc3nc(-c4c(NC[C@@H](O)c5cccc(Cl)c5)cc[nH]c4=O)[nH]c3cc2C1=O [compound 32],0.5 to 5,5 to 15
O=C1c2cc3nc(-c4c(NC[C@@H](O)c5cccc(Cl)c5)cc[nH]c4=O)[nH]c3cc2C(=O)N1C[C@@H]1CCCO1 [compound 29],5 to 15,> 15
CN1CCC(N2C(=O)c3cc4nc(-c5c(NC[C@@H](O)COc6cccc(-c7ccccc7)c6)cc[nH]c5=O)[nH]c4cc3C2=O)CC1 [compound 89],5 to 15,0.5 to 5
COc1cccc(OCC(O)CNc2cc[nH]c(=O)c2-c2nc3cc4c(cc3[nH]2)C(=O)N(C2CCN(C)CC2)C4=O)c1 (stereo not drawn) [compound 6],,0.5 to 5
Cc1ccc(OC[C@H](O)CNc2cc[nH]c(=O)c2-c2nc3cc4c(cc3[nH]2)C(=O)N(C2CCN(C)CC2)C4=O)cc1Cl [compound 99],> 15,> 15
Cc1ccc2c(ccn2C[C@H](O)CNc2cc[nH]c(=O)c2-c2nc3cc4c(cc3[nH]2)C(=O)N(C2CCN(C)CC2)C4=O)c1 [compound 131],> 15,0.5 to 5
CN1CCC(N2C(=O)c3cc4nc(-c5c(NC[C@@H](O)COc6cccc(C(F)(F)F)c6)cc[nH]c5=O)[nH]c4cc3C2=O)CC1 [compound 97],> 15,0.5 to 5
CN1CCC(N2C(=O)c3cc4nc(-c5c(NC[C@@H](O)COc6cccc(Cl)c6F)cc[nH]c5=O)[nH]c4cc3C2=O)CC1 [compound 96],> 15,5 to 15
O=C1c2cc3nc(-c4c(NC[C@@H](O)c5cccc(Cl)c5)cc[nH]c4=O)[nH]c3cc2C(=O)N1[C@H]1CN2CCC1CC2 [compound 34],> 15,> 15
CN1CCC(N2C(=O)c3cc4nc(-c5c(NC[C@@H](O)COc6ccc7ccccc7c6)cc[nH]c5=O)[nH]c4cc3C2=O)CC1 [compound 88],5 to 15,0.5 to 5
Cc1ccc(OC[C@H](O)CNc2cc[nH]c(=O)c2-c2nc3c(C)c4c(cc3[nH]2)C(=O)N(C2CCN(C)CC2)C4)c(C)c1 [compound 139],,0.5 to 5

# More lines, now with the values ahead:
IC50 (Ba/F3) [µM],IC50 (IGF1 receptor) [µM],Structure (SMILES)
5 to 15,5 to 15,Cc1ccc(OC[C@H](O)CNc2cc[nH]c(=O)c2-c2nc3c(C)c4c(cc3[nH]2)C(=O)N(C2CCN(C)CC2)C4=O)c(C)c1 [compound 110]
,< 0.5,CCN1CCC(N2C(=O)c3cc4nc(-c5c(NC[C@@H](O)COc6ccc(C)cc6C)cc[nH]c5=O)[nH]c4cc3C2=O)CC1 [compound 143]
5 to 15,5 to 15,Cc1ccc(OC[C@@H](O)CNc2cc[nH]c(=O)c2-c2nc3cc4c(cc3[nH]2)C(=O)N([C@H]2CCN(C)C2)C4=O)c(C)c1 [compound 106]
> 15,0.5 to 5,CN1CCC(N2C(=O)c3cc4nc(-c5c(NC[C@@H](O)COc6cccc(OC(F)(F)C(F)F)c6)cc[nH]c5=O)[nH]c4cc3C2=O)CC1 [compound 91]
> 15,0.5 to 5,Cc1c(Cl)cccc1OC[C@H](O)CNc1cc[nH]c(=O)c1-c1nc2cc3c(cc2[nH]1)C(=O)N(C1CCN(C)CC1)C3=O [compound 94]
,0.5 to 5,CCN1CCC(N2Cc3cc4nc(-c5c(NC[C@@H](O)COc6ccc(C)cc6C)cc[nH]c5=O)[nH]c4cc3C2=O)CC1 [compound 144]
> 15,> 15,O=C1c2cc3nc(-c4c(NC[C@@H](O)c5cccc(Cl)c5)cc[nH]c4=O)[nH]c3cc2C(=O)N1CCc1ccncc1 [compound 28]
5 to 15,> 15,Cc1ccc(Cl)c(C)c1OC[C@H](O)CNc1cc[nH]c(=O)c1-c1nc2cc3c(cc2[nH]1)C(=O)N(C1CCN(C)CC1)C3=O [compound 111]
,< 0.5,Cc1ccc(OC[C@H](O)CNc2cc[nH]c(=O)c2-c2nc3cc4c(cc3[nH]2)C(=O)N(C2CCNCC2)C4=O)c(C)c1 [compound 142]
> 15,> 15,CN1CCC(N2C(=O)c3cc4nc(-c5c(N[C@H](CO)Cc6c[nH]cn6)cc[nH]c5=O)[nH]c4cc3C2=O)CC1 [compound 2]
,5 to 15,CC(C)(CO)CN1C(=O)c2cc3nc(-c4c(NC[C@@H](O)c5cccc(Cl)c5)cc[nH]c4=O)[nH]c3cc2C1=O [compound 26]
0.5 to 5,0.5 to 5,Cc1ccc(OC[C@H](O)CNc2cc[nH]c(=O)c2-c2nc3cc4c(cc3[nH]2)C(=O)N(C2CCN(C)CC2)C4=O)c(C)c1 [compound 59]
> 15,0.5 to 5,Cc1cc(C)c(OC[C@H](O)CNc2cc[nH]c(=O)c2-c2nc3cc4c(cc3[nH]2)C(=O)N(C2CCN(C)CC2)C4=O)c(CS(C)(=O)=O)c1 [compound 84]
> 15,5 to 15,Cc1cc(C)c(OC[C@H](O)CNc2cc[nH]c(=O)c2-c2nc3cc4c(cc3[nH]2)C(=O)N(C2CCN(C)CC2)C4=O)cc1Cl [compound 108]
,0.5 to 5,Cc1ccc(OC[C@H](O)CNc2cc[nH]c(=O)c2-c2nc3cc4c(c(C)c3[nH]2)CN(C2CCN(C)CC2)C4=O)c(C)c1 [compound 132]
> 15,5 to 15,Cc1cc(C)c(OC[C@H](O)CNc2cc[nH]c(=O)c2-c2nc3cc4c(cc3[nH]2)C(=O)N(C2CCN(C)CC2)C4=O)c(C)c1 [compound 98]
> 15,0.5 to 5,COc1ccc(OC[C@H](O)CNc2cc[nH]c(=O)c2-c2nc3cc4c(cc3[nH]2)C(=O)N(C2CCN(C)CC2)C4=O)c(OC)c1OC [compound 93]
,0.5 to 5,Cc1ccc(OCC(O)CNc2cc[nH]c(=O)c2-c2nc3cc4c(cc3[nH]2)C(=O)N(C2CCN(C)CC2)C4=O)c(C)c1 (stereo not drawn) [compound 15]
